In one data set the test system is 4T1 cells. Nature of the data set: 4T1 cells injected into tail vein of BALB/c mice, lung metastasis and T-cell profiling. The class given is in vivo. Here is the method:
There was no difference in the primary tumor size between treatment groups nor the size of recurrent tumors at 6 weeks (FIG. 9, Panel B and FIG. 8, Panel C). […] To investigate tissue specific effects, gene expression changes between treatment groups in lung and tumor tissues were analyzed by RNA-sequencing. […] To reduce the impact of TEAD inhibition on cancer cell intrinsic function such as dissemination and invasion, 4T1, a triple negative mouse mammary carcinoma cell line (Pulaski & Ostrand-Rosenberg, 2000), was injected into the tail vein of BALB/c mice that directly seed into the lung tissue. A reduction in lung metastases, as well as the suppression of inflammatory pathways, were observed (FIG. 9, Panels E and F, and FIG. 8, Panel F).
To determine early changes in the T-cell population, lung and spleen tissues of BALB/c mice that were intravenously injected with 4T1 were processed and analyzed by flow cytometry 10 days post inoculation (FIG. 9, Panel E). […] M1-like macrophages and IL12 signaling play a critical role in the crosstalk between macrophages and T-cells triggering their proliferation and differentiation of T-cell subsets that can eliminate tumor cells unlike the pro-tumor M2-like macrophages (Guerriero, 2019; Oishi et al., 2016; Shao et al., 2023). Thus, the interplay between macrophage and T-cells after iTEAD treatment is likely to play a role in the increase in CD8+ T-cell and Th1 CD4+ cell populations in the lungs.
Formalin-fixed, paraffin embedded (FFPE) lung tissue sections were stained with hematoxylin and eosin. Immunohistochemistry staining was performed on FFPE tumor and lung tissue sections. Slides were deparaffinized in xylene and rehydrated following a series of ethanol washes. Heat-induced antigen retrieval was then performed by placing slides in warmed sodium citrate buffer (pH 6.0) (Invitrogen, 005000) in a pre-heated steamer for 20 minutes. Slides were cooled at room temperature for an additional 20 minutes, prior to quenching endogenous peroxidase activity using 3% hydrogen peroxide buffer (Fisher, BP2633500) for 10 minutes. Next, slides were incubated overnight at 4° C. with either anti-CD8 (Cell Signaling Technology, #98941), anti-CD68 (Abcam, ab303565), anti-CD206 (Cell Signaling Technology, #24595), or anti-F480 (Cell Signaling Technology, #70076). Following PBS washes, the slides are then stained with a biotinylated secondary antibody using the VECTASTAIN Elite ABC-HRP Kit according to the user's manual (Vector Laboratories, PK-6101). Positive brown staining was produced by applying ImmPACT DAB EqV Substrate Kit (Vector Laboratories, SK-4103) to the slides, which were then counterstained with hematoxylin (Sigma, MHS16). Images were captured using the Olympus BX40 microscope, and positive staining was quantified manually. Immunofluorescent staining was performed on lung tissue sections. Slides were baked at 60°, deparaffinized in xylene, rehydrated, washed in DI water and incubated with 10% neutral buffered formalin (NBF) for an additional 20 minutes to increase tissue-slide retention. Epitope retrieval/microwave treatment (MWT) for all antibodies was performed by boiling slides in Antigen Retrieval buffer 6 (AR6 pH6, Akoya AR6001KT). Protein blocking is performed using antibody diluent/blocking buffer (Akoya, ARD1001EA) for 10 minutes at room temperature. […] Slides were scanned at 10× magnification using the Vectra 3.0 Automated Quantitative Pathology Imaging System (PerkinElmer/Akoya). […]

Data set [1] has as its system DCIS and DCIS-Δ4 mixed 3D spheres. Nature of the data set: Invasion of DCIS and DCIS-Δ4 mixed 3D spheres in collagen:matrigel mix. The class given is cell-based, human. Here is the method: To determine iTEAD effect on lung immune microenvironment at steady state, naïve C57/BL6 mice were treated with iTEAD. […] In the absence of cancer cells in these naïve mice, no change in CD8+ T-cells was observed between treatment groups. […] On the cancer cell front, TEAD inhibition had no effect on proliferation yet reduced migration and 3D spheroid collective invasion of breast cancer cells in vitro.

A further data set relates to Jurkat cells. Briefly: Real Time Cell Analysis, cytotoxicity of Jurkat cells towards 4T1 cells. The class given is cell-based, human. The settings on record: 1 μM VT107 for 24 hours. Here is the method: The hippo pathway has been implicated in T-cell development and function (Du et al., 2014; Ueda et al., 2012). For example, YAP expression is essential for tumor immune suppression by Treg cells that attenuates CD8 T-cell immunity (Geng et al., 2017; Ni et al., 2018; Lebid et al., 2020). […] To investigate whether VT107 directly affected T-cells, T-cells treated with VT107 were co-cultured with 4T1 cells in 2D for 72 hours. […] To further confirm T-cell activation upon TEAD activity reduction, we used Jurkat cells, a CD4 positive human lymphoma cell line (Schneider et al., 1977). […] However, here we show the specific effect of TEAD reduction on granzyme gene expression and degranulation that result in the killing of cancer cells.
Cell analysis was done using E-plates from xCELLigence, (Agilent, #5469830001) according to the manufacturer's protocol. For cell cytotoxicity, cancer cells (10,000-25,000 cells per well) were seeded and allowed to attach for 1-2 hours prior to the addition of immune cells and/or drug treatments. For cell proliferation, cancer cells were seeded at 5,000-10,000 cells per well with incremental doses of drug treatments or DMSO as a vehicle control. Cell index was measured by changes in electric impedance at 15 min intervals. TEAD inhibitors were obtained from Vivace therapeutics. […]

For the substance VT107, in the data set on 4T1 cells (30 mg/kg VT107 daily), the “inflammatory pathways in lungs” value was “suppression”. Besides, in the data set with 4T1 cells (30 mg/kg VT107 daily by oral gavage vs vehicle), the lung metastases entry was “reduction”. In addition, the “T-bet staining in the lungs” value in the data set with 4T1 cells (IHC, week 2) is recorded as “significant increase”. Moreover, the “overall abundance of CD4+ and CD8+ T-cell populations” value in the data set on 4T1 cells (flow cytometry 10 days post inoculation) was “no difference”. Besides, the “helper 1 T-cell (Th1) population” value with 4T1 cells (flow cytometry 10 days post inoculation, lung) is reported as “increased”. In addition, the “migration of breast cancer cells in vitro” value in data set [1] was “reduced”. The “3D spheroid collective invasion” value in data set [1] (vs control) is on record as “reduced”. In the data set with Jurkat cells, the “Jurkat cytotoxicity towards co-cultured 4T1 cells” value is on record as “enhanced cytotoxicity”.

For the origin of these results see patent US20250352524A1, “PREVENTION OF METASTATIC OUTGROWTH USING TEAD INHIBITORS” (Georgetown University, priority 2024, published 2025).
